Source: US20250122190A1, “HALOGEN-SUBSTITUTED PYRIDAZINONE COMPOUND AND APPLICATION THEREOF” (MEDSHINE DISCOVERY INC., priority 2021, published 2025)
Read-outs that look alike come from different tables or passages of the source.

Columns and labels:
[1] = Rat group tissue distribution test; format: in vivo, SD male rats; details: intragastric, SD rats, n = 3; for concentration at 1 h / concentration at 4 h / concentration at 12 h: male, Sprague Dawley, rat, oral, read-out: Average drug concentration
From the text: In this study, SD male rats were selected as the test animals, and the LC/MS/MS method was used to quantitatively determine the drug concentration at different time points in the plasma, cerebrospinal fluid, brain, liver, and kidney of the test compounds administered orally to evaluate the tissue distribution of the test drugs in the rats.
Experimental materials: Sprague Dawley (SD) rats (male, 200-300 g, 7-10 weeks old, Beijing Vital River).
A clear solution or suspension of the test compounds was administered intragastrically into SD rats (fasted) (vehicle: 5% DMSO/10% Kolliphor® HS 15/85% water). […] The mixture was vortexed thoroughly and centrifuged at 3200 g, 4° C. for 10 minutes to obtain the plasma. The cerebrospinal fluid (about 0.02 mL) was collected. The brain, liver, and kidney were collected, rinsed with pre-cooled physiological saline, dried with paper, and then homogenated in a ratio of 1:4 (1 g of tissue: 4 mL of 15 mM phosphate-buffered physiological saline/MeOH (2:1)). The LC-MS/MS method was used to determine the drug concentration, and the Phoenix WinNonlin 6.3 pharmacokinetic software was used to calculate the relevant pharmacokinetic parameters by the non-compartmental model linear logarithmic trapezoidal method.

[2] = system: rat models of hypertensive renal disease; assay: Pharmacodynamic study in DOCA-NaCl induced hypertensive renal disease model; format: in vivo, male SD rats
From the text: PD and pharmacodynamic studies on the compounds of the present disclosure in male SD rat models of hypertension induced with deoxycorticosterone acetate-sodium chloride (DOCA-NaCl).
Prior to commencing the procedure, 7-8 weeks old male SD rats were allowed one week acclimatization. On the day of surgery, the table of the surgical area was disinfected with a disinfectant, and the rats were anesthetized with 2%-5% isoflurane and fixed on the table. The abdominal hair was removed and the surgical skin was disinfected. The skin and abdominal wall were cut open to expose the right kidney. The arteries and veins near the renal hilum were ligated. After it was confirmed that there were no bleeding points, the renal blood vessels and surrounding ligaments were bluntly separated and the right kidney was removed. After it was confirmed that there were no bleeding points, the abdominal wall muscle and skin were sutured. After the rats woke up, they were returned to the cage and observed. The rats were injected subcutaneously with meloxicam injection once a day for 3 consecutive days for pain relief.
One week after unilateral kidney removal, the animals were randomly divided into vehicle group, low dose group and high dose group according to body weight/blood pressure. The drinking water of animals in all groups was changed to an aqueous solution containing 1% sodium chloride+0.2% potassium chloride. […]

concentration at 1 h ([1]; Brain) [nM]	concentration at 4 h ([1]; Brain) [nM]	concentration at 12 h ([1]; Brain, 12 h) [nM]	concentration at 1 h ([1]; Kidney) [nM]	concentration at 4 h ([1]; Kidney) [nM]	concentration at 12 h ([1]; Kidney, 12 h) [nM]	concentration at 1 h ([1]; Liver) [nM]	concentration at 4 h ([1]; Liver) [nM]	concentration at 12 h ([1]; Liver, 12 h) [nM]	concentration at 1 h ([1]; Plasma) [nM]	concentration at 4 h ([1]; Plasma) [nM]	concentration at 12 h ([1]; Plasma, 12 h) [nM]	Average drug concentration ([1]; Brain, 12 h)	Compound	urinary albumin level ([2]; 30 mg/kg and 60 mg/kg intragastrically once a day for 28 days, vs vehicle control group)	expression of urinary Rac1 ([2]; low and high dose, intragastrically once a day for 28 days, vs vehicle group)
139	197	86	1260	1470	590	2610	3360	945	536	716	272		Nc1nc2c(c(Sc3ccc(F)cc3C(F)(F)F)n1)CCN(c1cn[nH]c(=O)c1Cl)C2 [Compound WX013]		
													O=c1[nH]ncc(N2CCc3c(ncnc3Sc3ccc(F)cc3C(F)(F)F)C2)c1Cl [Compound WX002]	significantly reduce	dose-dependently reduce
282	373		2630	3440	276	5120	5820	570	773	1080	82.7	BQL	O=c1[nH]ncc(N2CCc3c(nc(CO)nc3Sc3ccc(F)cc3C(F)(F)F)C2)c1Cl [Compound WX012]		
